# Patent US20230270828A1, “COMPOSITION FOR USE IN THE TREATMENT OF VIRAL INFECTIONS” (BICT S.R.L., priority 2020, published 2023)
# Like-named read-outs stand apart in the source and are kept apart here. Marks after values point to notes of the source that are not given here.
# Legend:
# [1] = test system: Vero cells (Monkey Kidney Epithelial Cells)
# [2] = test system: canine herpes virus, CHV-1; experiment: Antiviral checkerboard assay, Cf2Th cells infected with canine herpes virus CHV-1; type: cell-based
# Description: This antiviral activity was evaluated using Cf2Th cells (canine thymocytes) infected with canine herpes virus, CHV-1.
# Briefly, the Cf2Th cells were plated at a concentration of 5×10^5 cells/mL in 96-well multiwells (100 μL/well) and incubated at 37° C. in an atmosphere with 5% CO2.
# Upon reaching about 90% confluence (48 h incubation), the medium was aspirated from each well, and replaced with 100 μL fresh medium containing a final virus concentration equal to 1×10^3 UFP/mL, and different concentrations of Lactoferricin and Grape Seed extract.
# In particular, the different combinations between the two compounds had been previously prepared by crossing serial dilutions of the same, according to the protocol defined “broth microdilution checkerboard method”.
# The cells were left in co-incubation with the virus and the compounds under examination for 48 h (37° C. -5% CO2).
# At the end of the incubation, the wells characterized by a cell lysis given by the viral infection were discriminated from those in which the virus was inhibited by the compounds and therefore with viable cells. This evaluation was carried out both by direct observation under the microscope and by staining with methylene blue. […]
# To determine the actual presence of synergy between the two compounds, the ratio below was calculated, defined as the FIC Index (FIC I). […]
# [3] = test system: SARS-CoV-2; type: cell-based
# [4] = test system: SARS-CoV-2; experiment: Virucide activity against SARS-CoV-2, plaque assay; type: cell-based; conditions: scheme B+C; for SARS-CoV-2 infectivity reduced by: plaque assay
compound,measurement,setting,value
"CCN(CC)CCCC(C)Nc1ccnc2cc(Cl)ccc12 (centres unmarked) [Chloroquine, chloroquine, reference compound]",CC10,"[1]; Vero cells, 72 h, MTT",20.93 ± 4.39 µM
Lactoferricin,Minimum Antiviral Concentration Compound alone,"[2]; CHV-1, 48 h co-incubation",3.125%
same,Minimum Antiviral Concentration Compound in association,"[2]; in association with Grape Seed Extract, CHV-1, 48 h",0.781%
lactoferrin/lactoferricin [PREP 1],Mean ΔCt,"[3]; 1.02 mg/ml, scheme A (preincubation of virus with compound)",0.16
same,Mean ΔCt,"[3]; 1.02 mg/ml, scheme B+C (during and after inoculum)",−0.48
same,Mean ΔCt,"[3]; 1.02 mg/ml, scheme B+C+D (during, after inoculum and repeated)",−0.59
same,Mean ΔCt,"[3]; 2.03 mg/ml, scheme A (preincubation of virus with compound)",0.36
same,Mean ΔCt,"[3]; 2.03 mg/ml, scheme B+C (during and after inoculum)",−0.50
same,Mean ΔCt,"[3]; 2.03 mg/ml, scheme B+C+D (during, after inoculum and repeated)",−1.11
same,Mean ΔCt,"[3]; 4.06 mg/ml, scheme A (preincubation of virus with compound)",0.52
same,Mean ΔCt,"[3]; 4.06 mg/ml, scheme B+C (during and after inoculum)",−2.90
same,Mean ΔCt,"[3]; 4.06 mg/ml, scheme B+C+D (during, after inoculum and repeated)",−3.64
same,"mean ΔCt over schemes C, B+C and B+C+D","[3]; high dose, added after the inoculum, one or twice",−3.3
same,CC10,"[1]; Vero cells, 72 h, MTT",>4.06* mg/ml
same,CC50,"[1]; Vero cells, 72 h, MTT",>4.06* mg/ml
same,maximum nontoxic concentration (assumed),"[1]; Vero cells, based on CC50/CC10 data",4.06 mg/mL
polylysine [PREP 3],antiviral effect,[3],No antiviral effect
same,virus inhibition (antiviral and virucide activities),[3],more than 90%
same,"ΔCt, dose-dependent antiviral effect",[3],−1.80 to −5.22
same,antiviral effect,[3]; addition of a third dose (scheme B+C+D),slight effect
same,decrease in the viral replication,[3]; scheme B+C,more than 1 log
same,maximum inhibition of the virus replication,[3]; scheme B+C,93%
same,antiviral effect,"[3]; schemes A, B and C",no effect
same,CC10,[1],>0.40 mg/mL
same,SARS-CoV-2 infectivity reduced by,[4]; 0.05 mg/ml,20%
same,percentage of virus replication compared to untreated infected cells,[4]; 0.05 mg/ml,80%
same,SARS-CoV-2 infectivity reduced by,[4]; 0.1 mg/ml,30.2%
same,percentage of virus replication compared to untreated infected cells,[4]; 0.10 mg/ml,69.8%
same,SARS-CoV-2 infectivity reduced by,[4]; 0.20 mg/ml,48.8%
same,percentage of virus replication compared to untreated infected cells,[4]; 0.20 mg/ml,51.2%
same,SARS-CoV-2 infectivity reduced by,[4]; 0.40 mg/ml,96.3%
same,percentage of virus replication compared to untreated infected cells,[4]; 0.40 mg/ml,3.7%
